In US11680060B2, “Bicycloheptane pyrrolidine orexin receptor agonists” (Merck Sharp & Dohme LLC, priority 2020, dated 2023):
Read-outs that look alike come from different tables or passages of the source.

Target: human OX2R (Homo sapiens (Human), UniProt O43614)
Assay: IPOne (IP-1) assay in CHO cells expressing human OX2R
Type: cell-based
Details: for IC50: CHO cells expressing human OX2R, IP-One detection, 2 hours incubation, EC50 = inflection point of four parameter logistic fit, read-out: hOX2R_IP_IC50; for Emax: CHO
Excerpt: The utility of the compounds in accordance with the present invention as orexin receptor OX1R and/or OX2R agonists may be readily determined without undue experimentation by methodology well known in the art. Both the OX1R and/or OX2R G-coupled protein receptors (GPCRs) couple through the Gαq signaling pathway, which ultimately promotes calcium mobilization via inositol triphosphate (IP3) production. The half-life of IP-3 is relatively short, being rapidly metabolized to inositol monophosphate (IP-1), which can be readily detected using a commercially available assay kit (IP-One; Cisbio; cat #621PAPEC) coupled with a cell line expressing the target receptor(s) of interest. The utility of the compounds in accordance with the present invention as orexin receptor OX1R and/or OX2R agonists may be determined utilizing this assay.
In a typical experiment, the OX1 and OX2 receptor agonist activity is determined in accordance with the following general experimental method. Chinese hamster ovary (CHO) cells expressing human OX1R and/or the human OX2R were grown in Iscove's modified DMEM containing glutaMAX™, 1% G418, 100 U/mL penicillin, 100 μg/mL streptomycin and 10% heat-inactivated qualified fetal bovine serum (FBS). The OX2R cells were seeded at 10,000 cells/well/50 μL and the OX1R cells were seeded at 20,000 cells/well/50 μL into 384-well white tissue culture plates (Greiner; cat #781080). All cell/media reagents were from GIBCO-Invitrogen Corp. The seeded cell plate(s) were incubated at 37° C. with 5% CO2 and 85% humidity for 20-24 hours. On the day of the assay, assay-ready compound plates were prepared using an acoustic liquid handler (ECHO; Labcyte), which dispensed sufficient volume of test compound stock (10 mM in DMSO) or 100% DMSO to prepare 10 point, ½-log dilutions in a final volume of 202.5 nL/well in all test wells of a 384-well diamond plate (Labcyte). Following completion of assay-ready plates, importantly, the next three steps were performed with minimal delay: 1) 20 μl of 1× stimulation buffer was added to the compound plate using a Multidrop Combi (small cassette, Thermo Fisher Scientific cat #24073290); 2) culture medium was removed from the cell plate using the Bluewasher plate washer (gentle spin; BlueCatBio); 3) 14 μl of compound/stimulation buffer mixture was added to the cell plate using a Bravo liquid handler (Agilent) prior to incubating cell plates at 37° C. with 5% CO2 and 85% humidity for 1 or 2 hours (OX1R and OX2R, respectively). During this incubation, IP-one detection reagents were prepared (38:1:1 lysis buffer:D2:AB-cryptate reagents). Six μL of mixed detection reagents were added to the cell plate using a Multidrop Combi (small cassette, Thermo Fisher Scientific cat #24073290) and incubated 60 minutes at room temperature in the dark. Fluorescence signal was detected using an Envision plate reader (Perkin Elmer) [LANCE/DELFIA Dual Enh (Em: APC 665; Ex: Cy5 620)].
For each compound, data were fit to a four parameter logistic fit (ActivityBase software) and the EC50 was reported as the inflection point of the resulting curve. Percent effect for each test compound was determined as the percentage of sample raw value/mean max effect, where the mean max effect was derived from the mean raw value of 32 control wells per assay plate (using Orexin A (cat #003-30) at 1 μM for human OX1R and a reference compound at 1 uM with 100% activity previously established by comparison to Orexin A for human OX2R). The intrinsic orexin receptor agonist activity of a compound which may be used in the present invention may be determined by these assays.

[1] = percentage of mean max effect of a reference compound at 1 uM (100% activity by comparison to Orexin A), human OX2R, read-out: Emax (%)

human OX2R, sequence (O43614 whole entry): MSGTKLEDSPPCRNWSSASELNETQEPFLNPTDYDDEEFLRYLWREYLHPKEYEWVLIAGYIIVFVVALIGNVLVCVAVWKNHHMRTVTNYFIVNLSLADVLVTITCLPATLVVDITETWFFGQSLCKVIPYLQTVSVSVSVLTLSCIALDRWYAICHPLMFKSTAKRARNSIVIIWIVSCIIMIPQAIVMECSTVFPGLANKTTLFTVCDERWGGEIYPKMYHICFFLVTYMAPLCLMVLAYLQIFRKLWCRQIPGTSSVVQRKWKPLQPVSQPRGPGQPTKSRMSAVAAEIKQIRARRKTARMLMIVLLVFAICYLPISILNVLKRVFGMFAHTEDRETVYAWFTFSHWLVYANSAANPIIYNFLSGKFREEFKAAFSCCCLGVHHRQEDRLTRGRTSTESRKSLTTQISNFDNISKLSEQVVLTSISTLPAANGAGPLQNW

Row | Compound | IC50 [nM] | Emax [1] [%] | other results
1 | COC(=O)N1[C@H](C(F)F)C[C@H](NS(=O)(=O)C(F)F)[C@@H]1CO[C@H]1CC[C@@]2(c3ncc(F)cn3)C[C@H]2C1 (single isomer, unassigned) [Example 112] | 0.78 | 100 | 
2 | C[C@@H]1C[C@H](NS(C)(=O)=O)[C@H](CO[C@H]2CC[C@@]3(c4ncc(F)cn4)C[C@H]3C2)N1C(=O)OCC1(C)CC1(F)F (stereo partly drawn) [Example 57, (2,2-difluoro-1-methylcyclopropyl)methyl (2R,3S,5R)-2-((((1S,3S,6R)-6-(5-fluoropyrimidin-2-yl)bicyclo[4.1.0]heptan-3-yl)oxy)methyl)-5-methyl-3-(methylsulfonamido)pyrrolidine-1-carboxylate] |  | 102 | 
3 | COC(=O)N1[C@H](C(F)F)C[C@H](NS(=O)(=O)C(C)C)[C@@H]1COC1CCC2(c3ncc(F)cn3)CC2C1 (stereo partly drawn) [Example 120, methyl (2R,3S,5S)-5-(difluoromethyl)-2-(((6-(5-fluoropyrimidin-2-yl)bicyclo[4.1.0]heptan-3-yl)oxy)methyl)-3-((1-methylethyl)sulfonamido)pyrrolidine-1-carboxylate] |  | 102 | 
4 | COC(=O)N1[C@@H]2COC[C@@H]2C(NS(C)(=O)=O)[C@@H]1COC1CCC2(c3ncc(F)cn3)CC2C1 (mixture of isomers) [Example 134, Methyl (2R,3aS,6aS)-2-(((6-(5-fluoropyrimidin-2-yl)bicyclo[4.1.0]heptan-3-yl)oxy)methyl)-3-(methylsulfonamido)hexahydro-1H-furo[3,4-b]pyrrole-1-carboxylate] |  | 99.7 | 
5 | C[C@@H]1C[C@H](NS(C)(=O)=O)[C@H](CO[C@H]2CC[C@@]3(c4ncc(F)cn4)C[C@H]3C2)N1C(=O)OCC1CC(F)C1 (stereo partly drawn) [Example 49, (3-fluorocyclobutyl)methyl (2R,3S,5R)-2-((((1S,3S,6R)-6-(5-fluoropyrimidin-2-yl)bicyclo[4.1.0]heptan-3-yl)oxy)methyl)-5-methyl-3-(methylsulfonamido)pyrrolidine-1-carboxylate] |  |  | Emax: 103%
6 | COC(=O)N1[C@H](C)C[C@H](NS(=O)(=O)N(C)C)[C@@H]1COC1CCC2(c3cnccn3)CC2C1 (stereo partly drawn) [Example 13, methyl (2R,3S,5R)-3-((N,N-dimethylsulfamoyl)amino)-5-methyl-2-(((6-(pyrazin-2-yl)bicyclo[4.1.0]heptan-3-yl)oxy)methyl)pyrrolidine-1-carboxylate] |  |  | Emax (%) (percentage of mean max effect of a reference compound at 1 uM (100% activity by comparison to Orexin A), human OX2R): 82.0%
7 | CC(C)OC(=O)N1CCC[C@H](NS(=O)(=O)C2CC2)[C@@H]1COC1CCC2(c3ncc(F)cn3)CC2C1 (stereo partly drawn) [Example 122, isopropyl (2R,3S)-3-(cyclopropanesulfonamido)-2-(((6-(5-fluoropyrimidin-2-yl)bicyclo[4.1.0]heptan-3-yl)oxy)methyl)piperidine-1-carboxylate] |  | 104 | 
8 | COC(=O)N1[C@H](C)C[C@H](NS(=O)(=O)Cc2ccccc2)[C@@H]1CO[C@@H]1CC[C@]2(c3ncc(F)cn3)C[C@@H]2C1 [Example 45, methyl (2R,3S,5R)-2-((((1R,3R,6S)-6-(5-fluoropyrimidin-2-yl)bicyclo[4.1.0]heptan-3-yl)oxy)methyl)-5-methyl-3-((phenylmethyl)sulfonamido)pyrrolidine-1-carboxylate] |  | 92.7 | 

Continued, in another order:

Row | IC50 [nM] | Emax [1] [%] | Compound | other results
9 | 1.8 | 101 | CC(C)OC(=O)N1[C@H](C)C[C@H](NS(=O)(=O)CF)[C@@H]1CO[C@H]1CC[C@@]2(c3ncc(Cl)cn3)C[C@H]2C1 (single isomer, unassigned) [Example 95] | 
10 | 0.8 | 102 | CC(C)OC(=O)N1[C@H](C)C[C@H](NS(=O)(=O)N(C)C)[C@@H]1CO[C@H]1CC[C@@]2(c3ncc(F)cn3)C[C@H]2C1 (single isomer, unassigned) [Example 161] | 
11 |  | 103 | CC(F)COC(=O)N1[C@H](C)C[C@H](NS(C)(=O)=O)[C@@H]1CO[C@H]1CC[C@@]2(c3ncc(F)cn3)C[C@H]2C1 (stereo partly drawn) [Example 58, 2-fluoropropyl (2R,3S,5R)-2-((((1S,3S,6R)-6-(5-fluoropyrimidin-2-yl)bicyclo[4.1.0]heptan-3-yl)oxy)methyl)-5-methyl-3-(methylsulfonamido)pyrrolidine-1-carboxylate] | 
12 | 7.6 | 100 | COC(=O)N1[C@H](C)C[C@H](NS(=O)(=O)CF)[C@@H]1CO[C@H]1CC[C@@]2(c3ncc(F)c(OC)n3)C[C@H]2C1 [Example 83, methyl (2R,3S,5R)-2-((((1S,3S,6R)-6-(5-fluoro-4-methoxypyrimidin-2-yl)bicyclo[4.1.0]heptan-3-yl)oxy)methyl)-3-((fluoromethyl)sulfonamido)-5-methylpyrrolidine-1-carboxylate] | 
13 |  | 98.5 | CC(C)OC(=O)N1[C@H](C)C[C@H](NS(=O)(=O)CF)[C@@H]1COC1CCC2(c3ncc(F)cn3)CC2C1 (stereo partly drawn) [Example 111, isopropyl (2R,3S,5R)-3-((fluoromethyl)sulfonamido)-2-(((6-(5-fluoropyrimidin-2-yl)bicyclo[4.1.0]heptan-3-yl)oxy)methyl)-5-methylpyrrolidine-1-carboxylate] | 
14 | 1.4 | 98.6 | CCS(=O)(=O)N[C@H]1C[C@@H](C(F)F)N(C(=O)OC)[C@H]1CO[C@H]1CC[C@@]2(c3ncc(Cl)cn3)C[C@H]2C1 (single isomer, unassigned) [Example 114] | 
15 |  | 105 | CCCS(=O)(=O)N[C@H]1C[C@@H](C)N(C(=O)OC)[C@H]1CO[C@H]1CC[C@@]2(c3ncc(F)cn3)C[C@H]2C1 [Example 33, methyl (2R,3S,5R)-2-((((1S,3S,6R)-6-(5-fluoropyrimidin-2-yl)bicyclo[4.1.0]heptan-3-yl)oxy)methyl)-5-methyl-3-(propylsulfonamido)pyrrolidine-1-carboxylate] | 
16 | 6.5 | 103 | CC(C)OC(=O)N1[C@H](C)C[C@H](NS(=O)(=O)CF)[C@@H]1CO[C@@H]1CC[C@]2(c3ncc(Cl)cn3)C[C@@H]2C1 (single isomer, unassigned) [Example 96] | 
17 |  | 99.5 | COC(=O)N1[C@H](C)C[C@H](NS(C)(=O)=O)[C@@H]1COC1CCC2(c3ncc(F)cn3)CC2C1 (stereo partly drawn) [Example 135, methyl (2R,3S,5R)-2-(((6-(5-fluoropyrimidin-2-yl)bicyclo[4.1.0]heptan-3-yl)oxy)methyl)-5-methyl-3-(methylsulfonamido)pyrrolidine-1-carboxylate] | 
18 |  | 98.7 | COC(=O)N1[C@H](C)C[C@H](NS(C)(=O)=O)[C@@H]1CO[C@@H]1CC[C@]2(c3ncc(Cl)cn3)C[C@@H]2C1 [Example 141, methyl (2R,3S,5R)-2-((((1R,3R,6S)-6-(5-chloropyrimidin-2-yl)bicyclo[4.1.0]heptan-3-yl)oxy)methyl)-5-methyl-3-(methylsulfonamido)pyrrolidine-1-carboxylate] | 
19 |  | 102 | COC(=O)N1[C@H](C)C[C@H](NS(C)(=O)=O)[C@@H]1CO[C@H]1CC[C@@]2(c3ncc(Cl)cn3)C[C@H]2C1 [Example 142, methyl (2R,3S,5R)-2-((((1S,3S,6R)-6-(5-chloropyrimidin-2-yl)bicyclo[4.1.0]heptan-3-yl)oxy)methyl)-5-methyl-3-(methylsulfonamido)pyrrolidine-1-carboxylate] | 
20 | 2.5 | 103 | CC(C)OC(=O)N1[C@H](C)C[C@H](NS(=O)(=O)CF)[C@@H]1CO[C@@H]1CC[C@]2(c3ncc(F)cn3)C[C@@H]2C1 (single isomer, unassigned) [Example 99] | 
21 |  | 103 | COC(=O)N1[C@H](C)C[C@H](NS(=O)(=O)N2CCC2)[C@@H]1CO[C@H]1CC[C@@]2(c3ncc(F)cn3)C[C@H]2C1 [Example 39, methyl (2R,3S,5R)-3-(azetidine-1-sulfonamido)-2-((((1S,3S,6R)-6-(5-fluoropyrimidin-2-yl)bicyclo[4.1.0]heptan-3-yl)oxy)methyl)-5-methylpyrrolidine-1-carboxylate] | 
